The conditions of series [1]: in vivo; cited from earlier work.
Another series relates to human participants. To be noted: cited from earlier work.
Series [2] deals with head-twitch responses (HTRs). The following applies: 1 mg/kg, intraperitoneal, rats and mice; cited from earlier work.
For series [3] the following is noted: rats, intraperitoneal injection; cited from earlier work.
The conditions of series [4]: human, intravenous; cited from earlier work.
A further series relates to neural oscillations. The experiment in a line: Experiment 7: topographic pharmaco-EEG mapping of N2O+DMT (planned). To be noted: healthy humans, following DMT administration.
Series [5] can be described thus: Brain pharmacokinetics of co-administered DMT and DMT-d10 in male rats (IV bolus). It counts as in vivo, Sprague Dawley rats. To be noted: for Brain Cmax: IV bolus 1 mg/kg each, co-dosed (Group 4). As to the method:
Experimental Design. This was a single dose study with 4 treatment groups as outlined in Table 1.
Sampling collection. PK samples (0.3 mL) were collected from the jugular vein by venepuncture into tubes containing K2EDTA anticoagulant at the following sampling times: Group 1 (IV) and Group 2 (oral) serial plasma collection at 0.083, 0.25, 0.5, 1, 3, 8 and 24 hr postdose; Group 4 (IV) composite plasma and brain collection at 0.083, 0.25, 0.5 and 1 hr postdose; Group 6 (inhalation) serial plasma collection at 0.333, 0.533, 0.833, 1.333, 3.333, 8.333 and 24.333 after start of inhalation.
Brain samples: After extraction of whole brain from the cranium, brains were rinsed, patted dry, weighed, placed into tubes and frozen on dry ice. Thereafter, they were stored at −70 […] pending analysis.
Bioanalysis. Plasma and brain homogenates were analyzed for DMT and DMT-d10 using an established LC-MS/MS assay.) Pharmacokinetic parameters were determined from the DMT and DMT-d 10 plasma and brain concentration-time profiles using commercially available software (Phoenix® WinNonlin®).

Series [6] is described as follows: Plasma pharmacokinetics of co-administered DMT and DMT-d10 in male rats (IV bolus, oral gavage, inhalation). To be noted: for time of highest plasma concentration (first time point taken): IV bolus 1 mg/kg each; for time of highest plasma concentration (first time point taken) / mean residence time (MRT) after inhalation compared to IV administration: male rats; for F (bioavailability), inhalation: inhalation 14.3 (DMT) + 15.5 (DMT-d10) mg/kg, calculated from dose normalized AUC0-1 mean values vs Group 4 IV; for mean residence time (MRT) after inhalation compared to IV administration: inhalation vs IV; for AUC0-1/dose: plasma.

In the next series the test system is c-fos. The experiment in a line: RTqPCR gene expression in mouse left frontal cortex: c-fos. The following applies: 60 min treatment + 60 min room air, DMT-d10 5.6 mg/kg s.c., N2O 50% inhaled. (In qPCR the cycle at which signal appears reflects the starting amount.)
Another series relates to bdnf. Nature of the series: RTqPCR gene expression in mouse left frontal cortex: bdnf. It counts as in vivo, mice (C57B16/J). The following applies: 60 min treatment + 60 min room air, DMT-d10 5.6 mg/kg s.c., N2O 50% inhaled.
The next series has as its system syn1. The experiment in a line: RTqPCR gene expression in mouse left frontal cortex: syn1. The format is in vivo, mice (C57B16/J). The following applies: 60 min treatment + 60 min room air, DMT-d10 5.6 mg/kg s.c., N2O 50% inhaled.
In the next series the test system is homer1. Nature of the series: RTqPCR gene expression in mouse left frontal cortex: homer1. To be noted: 60 min treatment + 60 min room air, DMT-d10 5.6 mg/kg s.c., N2O 50% inhaled. It counts as in vivo, mice (C57B16/J).
In series [7] the target is T1, serotonin 5-HT2A receptor (Mus musculus, UniProt P35363).
T1 construct: Mice were exposed to a medium dose of the 5-HT2A agonist DMT-d10; from tissue; host or cells: living adult male C57Bl6/J mice (in vivo behavioural assay)
T1 sequence (P35363 whole entry): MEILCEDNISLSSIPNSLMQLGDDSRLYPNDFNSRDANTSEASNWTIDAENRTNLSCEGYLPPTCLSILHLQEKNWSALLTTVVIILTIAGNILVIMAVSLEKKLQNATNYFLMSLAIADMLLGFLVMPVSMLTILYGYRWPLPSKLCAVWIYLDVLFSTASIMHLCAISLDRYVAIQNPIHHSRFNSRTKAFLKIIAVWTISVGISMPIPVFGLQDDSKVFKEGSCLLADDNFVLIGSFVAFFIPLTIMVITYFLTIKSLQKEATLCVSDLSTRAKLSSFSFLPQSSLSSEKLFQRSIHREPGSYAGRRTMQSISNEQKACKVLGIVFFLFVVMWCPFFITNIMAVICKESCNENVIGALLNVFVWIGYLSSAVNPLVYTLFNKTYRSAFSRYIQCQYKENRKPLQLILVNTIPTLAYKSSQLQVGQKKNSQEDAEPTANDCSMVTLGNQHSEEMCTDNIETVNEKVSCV
The experiment in a line: Head twitch response (HTR) in mice, DMT-d10 with or without N2O. The format is in vivo, mice (C57B16/J). To be noted: DMT-d10 5.6 mg/kg s.c.; for head twitch responses (HTRs), result in words: mice, room air or N2O 50%, first 30 minutes; for Mean rank diff., total HTRs: Dunn's multiple comparisons, Veh/Air vs. treatment, N2O 50% inhaled. How it is done:
Experiment 1—Effect of N2O on the pharmacodynamic effects of DMT-d10. The dose-dependent behavioral effects of N2O on DMT-d10-induced head twitch response (HTR) in mice was determined.
Rationale: The head-twitch response (HTR) is a rapid side-to-side head movement that occurs in mice and rats after the serotonin 5-HT2A receptor is activated. The HTR is widely used as a behavioral assay for 5-HT2A activation and to probe for interactions between the 5-HT2A receptor and other transmitter systems (see Halberstadt, A. L. & Geyer, M. A. Characterization of the head-twitch response induced by hallucinogens in mice: detection of the behavior based on the dynamics of head movement. Psychopharmacology (Berl) 227, 10.1007/s00213-013-3006-z (2013); Canal, C. E. & Morgan, D. Head-twitch response in rodents induced by the hallucinogen 2,5-dimethoxy-4-iodoamphetamine: a comprehensive history, a re-evaluation of mechanisms, and its utility as a model. Drug Test Anal 4, 556-576 (2012)).
Data analysis: The number of head twitches over the first 30 minutes was summed (0-15 minutes, 15-30 minutes intervals) and analyzed by non-parametric Kruskal Wallis test with Dunn's multiple comparison tests between groups.

Series [8] concerns serum/glucocorticoid regulated kinase 1 (sgk1). Nature of the series: RTqPCR gene expression in mouse left frontal cortex: sgk1. The following applies: 60 min treatment + 60 min room air, DMT-d10 5.6 mg/kg s.c., N2O 50% inhaled.
Series [9] relates to Adult Male Laboratory Mice (C57B16/J). Nature of the series: Locomotor activity (distance travelled, Ethovision) in mice. It counts as in vivo. The following applies: DMT-d10 5.6 mg/kg s.c.; for Mean rank diff., total distance travelled: Dunn's multiple comparisons, Veh/Air vs. treatment, N2O 50% inhaled.
The subject of series [10] is early growth response protein 2 (egr2). The experiment in a line: RTqPCR gene expression in mouse left frontal cortex: egr2. To be noted: 60 min treatment + 60 min room air, DMT-d10 5.6 mg/kg s.c., N2O 50% inhaled.
The subject of series [11] is fibroblast growth factor 2 (fgf2). Nature of the series: RTqPCR gene expression in mouse left frontal cortex: fgf2. The following applies: 60 min treatment + 60 min room air, DMT-d10 5.6 mg/kg s.c., N2O 50% inhaled.
The mark [12] stands for this setting: IV bolus of DMT (as fumarate salt) 0.05-0.4 mg/kg.
The mark [13] stands for this setting: brain, male rats, IV bolus 1 mg/kg each (Group 4).
Setting [14] is: Inhalation 14.3 (DMT) / 15.5 (DMT-d10) mg/kg.

Molecules are shown by their SMILES. Read-outs that look alike come from different tables or passages of the source.

Turning to `COc1ccc2[nH]cc(CCN(C)C)c2c1` [5-MeO-DMT, 5-methoxy-N,N-dimethyltryptamine], in [1], the elimination half-life was 12 to 19 min.

A word on the half-life: it is the time needed for the level to fall by half in the phase considered. For `CN(C)CCc1c[nH]c2ccccc12` [DMT, N,N-dimethyltryptamine], the hallucinogenic effect entry in the series with human participants (0.1 mg/kg IV) is reported as “not hallucinogenic”. Also, in the series on human participants (0.2 and 0.4 mg/kg IV), the hallucinogenic effect entry is on record as “nearly instantaneous onset of visual hallucinatory phenomena”. In the series on human participants (setting [12]), the “time by which psycho-biological effects resolve” value is given as ≤ 30 minutes and the “time of peak of psycho-biological effects” value is recorded as 120 seconds. The “duration of effect of vaporized DMT” value in the series with human participants (vaporized or inhaled free-base, 40-50 mg) is “less than 30 min”. For the same compound, the “hallucinogenic potential as measured by head-twitch responses (HTRs)” value in [2] is on record as “sub-hallucinogenic”. In series [3], the half-life was 5 to 15 min; the “time to be metabolized and cleared from brain, liver, and plasma” value is ≤ 1 h. Further, in [4], the half-life entry was “around 15 minutes” and the “time to peak plasma concentrations” value is reported as “approximately 2 minutes”. Moreover, the “absolute power in EEG frequency bands” value in the series on neural oscillations was “decreased absolute power in all frequency bands”. Also, in series [5] (setting [13]), the “Brain AUC0-inf” value was 1070 ng·h/g and the “Brain AUC0-t” value was determined as 1060 ng·h/g. Also, in series [5] (brain, male rats), the “Brain Cmax” value is reported as 3430 ng/g. In addition, the elimination half-life in series [1] was 12 to 19 min. Besides, in series [6], the “time of highest plasma concentration (first time point taken)” value amounted to 0.083 h; the “F (bioavailability), inhalation” value is listed as 16.3%; the “mean residence time (MRT) after inhalation compared to IV administration” value is “approximately 5 ×”. The AUC0-1/dose in series [6] (setting [14]) is recorded as 18.2. Moreover, the AUC0-1/dose in series [6] (Intravenous 1 mg/kg each) is 112. The AUC0-1/dose in [6] (Oral 10 mg/kg each) was 1.52.

Consider `[2H]C([2H])([2H])N(C([2H])([2H])[2H])C([2H])([2H])C([2H])([2H])c1c[nH]c2ccccc12` [DMT-d10], for which the “c-fos gene expression, percentage change compared to control (Veh/Air), % mean” value in the series on c-fos was determined as 18.57%. The “bdnf gene expression, percentage change compared to control (Veh/Air), % mean” value in the series on bdnf was −9.25%. In the series with syn1, the “syn1 gene expression, percentage change compared to control (Veh/Air), % mean” value stood at 1.47%. In addition, the “homer1 gene expression, percentage change compared to control (Veh/Air), % mean” value with homer1 is listed as 2.44%. The “head twitch responses (HTRs), result in words” value in series [7] is “modest number of HTRs”. In addition, the results for the “Mean rank diff., total HTRs” value in [7] (minutes 0-15) and in series [7] (minutes 15-30) were −22.65 and −12.80, respectively. Further, the “sgk1 gene expression, percentage change compared to control (Veh/Air), % mean” value in series [8] is 15.58%. The “distance travelled (locomotor behavior), result in words” value in series [9] (mice, room air or N2O 50%, minutes 0-15 and 15-30) is reported as “travelled less distance than the vehicle/air group”. Further, the results for the “Mean rank diff., total distance travelled” value in series [9] (minutes 0-15) and in series [9] (minutes 15-30) were 16.50 and 19.30, respectively. In addition, the “improvement of brain to plasma (B/P) ratio by deuteration” value in series [5] (DMT-d10 vs. DMT, IV 1 mg/kg, rats) was “approximately 30%”. Also, the “Brain AUC0-t” value in series [5] (setting [13]) is 931 ng·h/g. Besides, the “Brain Cmax” value in series [5] (brain, male rats) stood at 1490 ng/g. For the same compound, in series [10], the “egr2 gene expression, percentage change compared to control (Veh/Air), % mean” value stood at 8.24%. For the same compound, the “fgf2 gene expression, percentage change compared to control (Veh/Air), % mean” value in series [11] is given as 3.13%. For the same compound, the “increase of inhalation bioavailability by deuteration” value in [6] (DMT-d10 vs. DMT, inhalation, rats) is on record as “approximately 40%”. Besides, the “time of highest plasma concentration (first time point taken)” value in series [6] worked out at 0.083 h. Further, in series [6], the “F (bioavailability), inhalation” value is recorded as 22.6%. In addition, in series [6], the “mean residence time (MRT) after inhalation compared to IV administration” value was “approximately 5 ×”. Also, the AUC0-1/dose in [6] (setting [14]) was determined as 17.0; in [6] (Intravenous 1 mg/kg each) it was 75.4; in [6] (Oral 10 mg/kg each) it was 0.878.

Consider `[N-]=[N+]=O` [N2O, nitrous oxide], for which the “c-fos gene expression, percentage change compared to control (Veh/Air), % mean” value with c-fos is given as 32.29%. Further, the “bdnf gene expression, percentage change compared to control (Veh/Air), % mean” value with bdnf was 15.67%. Also, the “syn1 gene expression, percentage change compared to control (Veh/Air), % mean” value in the series on syn1 is recorded as 13.38%. Further, the “homer1 gene expression, percentage change compared to control (Veh/Air), % mean” value in the series with homer1 was 29.35%. In addition, in series [7], the “head twitch responses (HTRs), result in words” value is reported as “attenuates DMT-d10-induced HTRs”. Moreover, the figures for the “Mean rank diff., total HTRs” value in series [7] (minutes 0-15) and in series [7] (minutes 15-30) were −1.250 and 0.000, respectively. The “sgk1 gene expression, percentage change compared to control (Veh/Air), % mean” value in series [8] is 33.82%. Moreover, the “Mean rank diff., total distance travelled” value in series [9] (minutes 0-15) is −11.40; in series [9] (minutes 15-30) it was −8.000. Further, the “egr2 gene expression, percentage change compared to control (Veh/Air), % mean” value in [10] is given as 38.30%. Besides, the “fgf2 gene expression, percentage change compared to control (Veh/Air), % mean” value in series [11] was 5.24%.

(Values after patent publication US20260240901A1, “COMBINATION OF NITROUS OXIDE AND 5-HT2A RECEPTOR AGONISTS” (Cybin IRL Limited, priority 2022, published 2026).)
